Experiments:
[1] = tested on: human M17 neuroblastoma cells; assay: MTT cell viability, M17 cells transfected with Aβ1-42 or LacZ; assay type: cell-based; settings: Nilotinib 24 hr
Experimental: (§1) Human neuroblastoma M17 or rat B35 cells were grown in 24 well dishes (Falcon). Transient transfection was performed with 3 μg Aβ1-42 cDNA, or 3 μg LacZ cDNA for 24 hr. […] Cells were harvested 48 hr after transfection.
(§2) Parkin levels were measured via ELISA using parkin−/− brain extracts as a specificity control (FIG. 66A).

[2] = tested on: Aβ1-42 parkin−/− mice; assay: Novel object recognition, Aβ1-42 parkin−/− mice; assay type: in vivo, mouse; settings: Aβ1-42 parkin−/− mice with or without Nilotinib
Experimental: Mice were placed individually in a 22×32×30 cm testing chamber for a 5 min habituation interval and returned to their home cages. Thirty minutes later mice were placed in the testing chamber for 10 min with two identical objects (acquisition session), then returned to their home cages and […] placed back in the testing chamber in the presence with one of the original objects and one novel object of the same size but of a different color and shape (recognition session). Sessions were video recorded. Time spent exploring the objects were scored by blind observer. The recognition index was calculated as (time exploring one of the objects/time exploring both objects)×100 for acquisition session, and (time exploring new object/time exploring both familiar and novel objects)×100 for the recognition session. Statistical calculations to estimate differences between sessions were performed with a pairwise t-test.
These experiments were repeated in 1 year old Tg-APP mice and age-matched control (C57BL/6).

[3] = tested on: Aβ1-42 plaques and intracellular Aβ1-42; assay: Plaque and intracellular Aβ1-42 staining, lentiviral Aβ1-42 parkin−/− mice; assay type: in vivo, mouse
Experimental: (§3) Immunohistochemistry was performed on 20 micron-thick 4% paraformaldehyde (PFA) fixed cortical brain sections. Aβ1-42 was probed (1:200) with rabbit polyclonal specific anti-Aβ1-42 antibody (Zymed) that recognizes a.a.1-42, and (1:200) mouse monoclonal antibody (4G8) that recognizes amino acid 17-24 (Covance) and counterstained with DAPI. Parkin was immunoprobed (1:200) with mouse anti-parkin (PRK8) antibody that recognizes amino acid 399-465 (Signet Labs, Dedham, Mass.) and rabbit polyclonal (1:200) anti-parkin (AB5112) antibody that recognizes amino acid 305-622 (Millipore) and counterstained with DAPI. Mouse monoclonal (6E10) antibody (1:100) with DAB were used (Covance) and thioflavin-S was performed according to manufacturer's instructions (Sigma).
(§4) Stereological methods were applied by a blinded investigator using unbiased stereology analysis (Stereologer, Systems Planning and Analysis, Chester, Md.) as described in (20,36).

[4] = tested on: transgenic A53T mice; assay: Rotarod, A53T mice; assay type: in vivo, mouse
Excerpt: Mice were placed on an accelerating rotarod (Columbus Instruments) equipped with individual timers for each mouse. […] All values were converted to % control.

[5] = tested on: parkin; assay: Parkin levels in neuroblastoma cells (ELISA, WB); assay type: cell-based
Experimental: as §1, §2

[6] = tested on: Aβ1-42 plaques and intracellular Aβ1-42; assay: Plaque and intracellular Aβ1-42 staining, lentiviral Aβ1-42 wild type mice; assay type: in vivo, mouse
Experimental: as §3, §4

[7] = tested on: SN Tyrosine hydroxylase (TH) neurons; assay: TH neuron stereology and electron microscopy of SN, lentiviral α-Synuclein mice; assay type: in vivo, mouse
Experimental: Animals were deeply anesthetized with a mixture of Xylazine and Ketamine (1:8), washed with 1× saline for 1 min and then perfused with 4% paraformaldehyde (PFA) for 15-20 min. Brains were quickly dissected out and immediately stored in 4% PFA for 24 h at […], and then transferred to 30% sucrose at […] for 48 h. Tyrosine Hydroxylase (TH) was probed (1:100) with rabbit polyclonal (AB152) antibody (Millipore) and human α-Synuclein was probed (1:100) with mouse monoclonal antibodies (Thermo Scientific) and DAB counterstained.
These were applied by a blinded investigator using unbiased stereology analysis (Stereologer, Systems Planning and Analysis, Chester, Md.) to determine the total positive cell counts in 20 cortical fields on at least 10 brain sections (˜400 positive cells per animal) from each animal.
Brain tissues are fixed in (1:4, v:v) 4% PFA-picric acid solution and […] overnight, then washed 3× in 0.1 M cacodylate buffer and osmicated in 1% osmium tetroxide/1.5% potassium ferrocyanide for 3 h, followed by another 3× wash in distilled water. […] Blocks are sectioned on a Leica ultracut microtome at 95 nm, picked up onto […] formvar-coated copper grids and analyzed using a Philips Technai Spirit transmission EM. […]

[8] = tested on: lentiviral Aβ1-42-injected wild type mice; assay: Morris water maze, lentiviral Aβ1-42 wild type mice; assay type: in vivo, mouse; settings: Nilotinib
Experimental: All animals were pre-trained (trials) to swim for 90 seconds in a water maze containing a platform submerged in water (invisible) for 4 consecutive days once a day. The pretraining trials “teach” the swimming animals that to “escape”, they must find the hidden platform, and stay on it. The water maze “test” was performed on day 5, (40), when the platform was removed and mice have to swim and find it, thus assessing acquisition and retention. All parameters, including distance travelled to reach platform, speed to get to the platform, latency or time spent on platform, and platform entry were digitally recorded on a computer and analyzed by a blind investigator.
The Morris water maze test was performed after 4 days of training trials in which the platform was placed in the SE corner and mice were initially placed in the NW corner of the pool.

[9] = tested on: molecular markers of autophagy; assay: Western blot of autophagy markers, lentiviral α-Synuclein mice; assay type: in vivo, mouse; settings: Nilotinib 10 mg/kg IP daily 3 weeks
Excerpt: (§5) Rabbit polyclonal (1:1000) tubulin (Thermo Scientific) was used.

[10] = tested on: parkin and molecular markers of autophagy; assay: Parkin and autophagy markers (WB, ELISA), lentiviral Aβ1-42 wild type mice; assay type: in vivo, mouse
[11] = tested on: molecular markers of autophagy; assay: Western blot of autophagy markers, A53T mice; assay type: in vivo, mouse; settings: daily IP Nilotinib 3 weeks
Excerpt: as §5

[12] = wild type lentiviral Aβ1-42 mice, Nilotinib vs DMSO

Which “cell viability (MTT) after Aβ1-42 induced cell death” value ([1]; Aβ1-42 expressing cells) does the source give for `Cc1cn(-c2cc(NC(=O)c3ccc(C)c(Nc4nccc(-c5cccnc5)n4)c3)cc(C(F)(F)F)c2)cn1` [Nilotinib] here?
The value was 83 % of control level.

And the “cell death (by MTT)” value ([1]; LacZ cells)?
Its value is “No cell death”.

And the “novel object recognition learning” value [2]?
The value was “did not learn”.

What about the plaque size ([3]; Aβ1-42 parkin−/− mice + Nilotinib (DMSO 85 μm)) of the same compound?
Its plaque size is 79 μm.

And the “Aβ1-42 positive cells (stereological counting)” value ([3]; Aβ1-42 parkin−/− mice + Nilotinib (DMSO N=14566))?
Its value is 13250.

And the plaque load ([3]; Aβ1-42 parkin−/− mice, Nilotinib)?
Its plaque load is “did not reduce plaque load”.

What about the “increase in rotarod motor performance above control levels” value ([4]; 6-8 months old A53T mice, Nilotinib) of the same compound?
Its value is 45%.

What about the “motor performance (rotarod)” value ([4]; A53T mice, 10 mg/kg Nilotinib or 5 mg/Kg Bosutinib once daily for 3 weeks) of the same compound?
The value was “increased”.

And the “increase in parkin (ELISA), non-significant” value ([5]; 10 μM Nilotinib)?
The value was 17%.

What about the “increase in parkin (ELISA)” value ([5]; Aβ1-42 + Nilotinib) of the same compound?
Its value is 24%.

What about the “increase in Nilotinib-induced parkin on blocking beclin-1 with shRNA (WB)” value ([5]; shRNA beclin-1 + Nilotinib) of the same compound?
The value was 28%.

And the plaque size ([6]; Aβ1-42 wild type mice + Nilotinib (DMSO around 48 μm))?
Its plaque size is 5 μm.

And the plaque formation ([6]; Aβ1-42 wild type mice, Nilotinib daily for 3 weeks)?
Its plaque formation is “eliminates plaque formation”.

And the “Aβ1-42 positive cells (stereological counting)” value ([6]; Aβ1-42 wild type mice, Nilotinib treated)?
Its value is 5200 cells.

What about the “intracellular Aβ1-42 accumulation (cortex)” value ([6]; lentiviral Aβ1-42 injected mice, Nilotinib) of the same compound?
Its value is “eliminated Aβ1-42 accumulation”.

And the “TH+ neurons (by stereology)” value ([7]; lentiviral α-Synuclein mice + Nilotinib)?
Its value is 82 % of LacZ level.

And the “autophagic vacuoles in SN neurons (transmission electron microscopy)” value ([7]; lentiviral α-Synuclein mice, Nilotinib treatment)?
Its value is “appearance of larger AVs”.

And the “time spent in NW quadrant” value ([8]; Aβ1-42-injected wild type mice)?
The value was “back to the level observed in control mice”.

And the “improved time spent in SE compared to DMSO” value ([8]; Aβ1-42 wild type mice)?
Its value is 61%.

And the “improved time spent in SE compared to control” value ([8]; Aβ1-42 wild type mice)?
Its value is 26%.

And the “number of entries into SE (platform entry)” value ([8]; Aβ1-42 wild type mice)?
The value was “reversed the number of entries back to control”.

And the “decrease in LC3-II compared to LC3-I” value [9]?
Its value is 39%.

What about the “decrease in LC3-II compared to MAP-2” value [9] of the same compound?
The value was 41%.

What about the “decrease in P62” value [9] of the same compound?
Its value is 69%.

And the “increase in Atg-5 compared to actin” value [9]?
Its value is 43%.

And the “increase in Atg-12 compared to actin” value [9]?
Its value is 58%.

And the “increase in beclin-1 compared to actin” value [9]?
The value was 62%.

And the LC3-II [10, 12]?
The LC3-II was “disappearance”.

What about the “decrease in LC3-B” value [10, 12] of the same compound?
Its value is 38%.

What about the “parkin level (ELISA)” value ([10]; wild type mice and lentiviral Aβ1-42 ± Nilotinib) of the same compound?
Its value is “increases parkin level”.

What about the LC3-II level [11] of the same compound?
Its LC3-II level is “completely disappeared”.

And the “increase in Atg-5 compared to DMSO” value [11]?
Its value is 29%.

And the “increase in beclin-1 compared to DMSO” value [11]?
The value was 69%.
